Legend:
SXR [1] = biological target: T1, SXR (Homo sapiens, UniProt O75469); experiment: Microplate thermal shift assay (Thermofluor) of SXR with ligands, co-activator peptide SRC1-NR2 and co-repressor peptide NCoR-1; conditions: for ΔΔTm SRC1-NR2 / ΔTm ligand: SXR 6 μM, ligand 50 μM; for ΔΔTm SRC1-NR2: co-activator peptide SRC1-NR2 100 μM, change from the receptor-ligand ΔTm; for ΔTm ligand: average of four experiments; for ΔTm at 100 µM: read-out: ΔΔTm NcoR1-NR2
T1 sequence (O75469 1-434): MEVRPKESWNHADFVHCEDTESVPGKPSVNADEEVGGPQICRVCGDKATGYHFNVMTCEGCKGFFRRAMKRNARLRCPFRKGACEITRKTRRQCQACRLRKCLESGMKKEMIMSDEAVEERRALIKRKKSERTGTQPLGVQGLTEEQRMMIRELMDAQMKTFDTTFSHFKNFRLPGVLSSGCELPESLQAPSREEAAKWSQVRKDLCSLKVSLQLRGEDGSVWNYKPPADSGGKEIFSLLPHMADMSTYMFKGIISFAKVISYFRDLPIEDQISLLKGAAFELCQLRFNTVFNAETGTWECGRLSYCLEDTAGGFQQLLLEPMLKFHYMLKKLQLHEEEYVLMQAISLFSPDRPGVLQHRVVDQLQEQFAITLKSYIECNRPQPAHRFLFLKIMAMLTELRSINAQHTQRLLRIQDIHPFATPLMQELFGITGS
Experimental: A 2 μL ligand solution at 2 times the final concentration was dispensed with a micropipette into a 384 well black wall Greiner plate. Then, 2 μL of the protein dye solution was dispensed on top of the ligand solution in the 384 well plate. The plates were spun to ensure mixing of the protein-dye and ligand solutions followed by layering of 1 μL of silicone oil to prevent evaporation during heating of the samples. […] The values for the co-regulators represent a change in Tm stabilization from the receptor-ligand ΔTm values.

SXR [2] = biological target: T1, SXR; conditions: from Ekins & Erickson, Drug Metabolism and Disposition, 30, 96-99 and references therein; cited from earlier work

| SMILES | Kd (SXR [1]) [µM] | ΔΔTm SRC1-NR2 (SXR [1]) | ΔTm ligand (SXR [1]) [°C] | Probability Agonist (statistical probability of agonist state) (SXR [1]; computed from affinities derived from ΔΔTm with co-regulator peptides (FIG. 3)) | ΔTm at 100 µM (SXR [1]) [°C] | fold activation (SXR [2]) | EC50 (SXR [2]) [µM] |
| --- | --- | --- | --- | --- | --- | --- | --- |
| CC[C@H](C)C(=O)O[C@H]1C[C@@H](C)C=C2C=C[C@H](C)[C@H](CC[C@@H]3C[C@@H](O)CC(=O)O3)[C@H]21 [Lovastatin] | 0.55 | 3.0 | 6.3 | 0.85 | 1.2 | 5-fold | – |
| CC(=O)O[C@H]1C(=O)[C@@]2(C)[C@H]([C@H](OC(=O)c3ccccc3)[C@]3(O)C[C@H](OC(=O)[C@H](O)[C@@H](NC(=O)c4ccccc4)c4ccccc4)C(C)=C1C3(C)C)[C@]1(OC(C)=O)CO[C@@H]1C[C@@H]2O [Taxol] | 23 | 2.5 | 1.3 | – | 4.7 | – | 5 |
